Where a name gives a salt, the structure may show the parent alone. Read-outs that look alike come from different tables or passages of the source.
What was measured:
[1] = In vitro mucosal-to-serosal vancomycin transport, modified Ussing chambers, jejunum; assay type: in vitro ADME, rat; conditions: male, rat
Excerpt: (§1) We investigated regional variation in permeation of vancomycin (VCM) across various segments of rat intestine and colon in vitro by mounting isolated segments of rat intestine and colon between horizontal modified Ussing chambers. The effects of drug concentration and of addition of a p-glycoprotein inhibitor or permeation enhancer(s) as formulation additives on VCM permeation were also studied in vitro using segments of rat jejunum.
(§2) Methods: A modified Ussing system (Easy mount Ussing system, Physiological Instruments Inc., CA, Item # EM-CSYS-8) with eight sets of chambers was used for all in vitro studies; each set consisted of two parallel diffusion chambers, a heating block for temperature control, needle valves for gas flow adjustment and gas mixing, and Ag/AgCl voltage and current electrodes for measuring transepithelial voltage and for passing current.
(§3) Harvesting of required small intestinal or colon segments of a male rat was performed using experimental procedures described in the literature (Gotoh et al., J Biomol Screen (2005) 10:517-23). The harvested segments of small intestine or colon were mounted on sliders placed between the two horizontal chambers of a modified Ussing system.
(§4) VCM was dissolved in HEPES buffer pH 7.4 (Table 1) previously saturated with 100% O2 or HEPES buffer containing additives selected from permeation enhancer(s) and/or an efflux transport inhibitor (Table 2) to obtain predetermined concentrations of drug and additive(s).
Drug transport across epithelial membranes of harvested rat small intestine and colon segments, in mucosal-to-serosal (M-to-S) direction, was studied using modified Ussing Chambers. Aliquots of HEPES buffer (5 ml) were initially added to both the mucosal and serosal chambers and allowed to equilibrate for 20 minutes. The HEPES buffer in the mucosal chamber was replaced by a study sample containing VCM alone or VCM and selected additive(s) in HEPES buffer, e.g., 5 mg/mL of VCM dissolved in HEPES buffer containing 10% w/w Labrasol®. Aliquots of 0.5 mL buffer solutions were removed periodically from serosal chambers, and replaced with equal volumes of fresh warm (37±2° C.) HEPES buffer previously saturated with 100% O2. […]
(§5) Changes in transepithelial short-circuit current (in micro-Amps) and membrane resistance (in Ohms) as a function of time were monitored continuously during in vitro studies to serve as indicators of tissue viability and drug permeability, respectively. The buffer samples from the receptor chambers were analyzed for VCM content on a high pressure liquid chromatograph (HPLC; Hewlett Packard Model 1100 series).
(§6) The analysis of VCM samples was performed using a reverse phase gradient HPLC method, with a Hypersil BDS C18 column, 5 μm, 150×4.6 mm., mobile phase consisting of 5 mM potassium phosphate monobasic in water (pH 3) as solvent A and acetonitrile as solvent B at a flow rate of 1 ml/min (Farin et al., J Pharm Biomed Anal (1998) 18:367-72). The eluant was monitored by a UV/diode array detector at 280 nm.
(§7) To compare data obtained from different in vitro experiments, the apparent permeability coefficients were calculated using the equation: […]
(§8) Where dQ/dt is the linear appearance rate of mass in receiver compartment, C0 is the initial solute concentration in donor compartment, and A is the surface area (Luo et al., Drug Metab Dispos (2002) 30:763-70).

rat duodenum = experiment: In vitro mucosal-to-serosal vancomycin transport, modified Ussing chambers, duodenum; assay type: in vitro ADME; conditions: 5 mg/ml vancomycin in HEPES buffer
Excerpt: as §1, §2, §3, §4
(§9) Drug transport across epithelial membranes of harvested rat small intestine and colon segments, in mucosal-to-serosal (M-to-S) direction, was studied using modified Ussing Chambers. Aliquots of HEPES buffer (5 ml) were initially added to both the mucosal and serosal chambers and allowed to equilibrate for 20 minutes. The HEPES buffer in the mucosal chamber was replaced by a study sample containing VCM alone or VCM and selected additive(s) in HEPES buffer, e.g., 5 mg/mL of VCM dissolved in HEPES buffer containing 10% w/w Labrasol®. Aliquots of 0.5 mL buffer solutions were removed periodically from serosal chambers, and replaced with equal volumes of fresh warm (37±2° C.) HEPES buffer previously saturated with 100% O2. To study the effect of additives in the serosal chamber (i.e., quinidine and sodium decanoate), HEPES buffer containing the selected additive was placed in the serosal chamber and replaced with the same buffer composition during sampling.
as §5, §6, §7, §8

[2] = as above; assay type: in vitro ADME, rat; conditions: male, rat, pH 7.4, 5 mg/ml, HEPES buffer alone
Excerpt: as §1, §2, §3, §4, §9, §5, §6, §7, §8

rat colon = experiment: In vitro mucosal-to-serosal vancomycin transport, modified Ussing chambers, colon; assay type: in vitro ADME; conditions: 5 mg/ml vancomycin in HEPES buffer
Excerpt: as §1, §2, §3, §4, §9, §5, §6, §7, §8

[3] = as above; assay type: in vitro ADME, rat; conditions: male, rat, pH 7.4, 5 mg/ml, HEPES buffer alone
Excerpt: as §1, §2, §3, §4, §9, §5, §6, §7, §8

[4] = rats, cited from earlier work
[5] = cited from earlier work
[6] = In vitro mucosal-to-serosal vancomycin transport, modified Ussing chambers, ileum; assay type: in vitro ADME, rat; conditions: male, rat, pH 7.4, 5 mg/ml, HEPES buffer alone
Excerpt: as §1, §2, §3, §4, §9, §5, §6, §7, §8

rat ileum = experiment: as above; assay type: in vitro ADME; conditions: 5 mg/ml vancomycin in HEPES buffer
Excerpt: as §1, §2, §3, §4, §9, §5, §6, §7, §8

`CN[C@H](CC(C)C)C(=O)N[C@H]1C(=O)N[C@@H](CC(N)=O)C(=O)N[C@H]2C(=O)N[C@H]3C(=O)N[C@H](C(=O)N[C@H](C(=O)O)c4cc(O)cc(O)c4-c4cc3ccc4O)[C@H](O)c3ccc(c(Cl)c3)Oc3cc2cc(c3O[C@@H]2O[C@H](CO)[C@@H](O)[C@H](O)[C@H]2O[C@H]2C[C@](C)(N)[C@H](O)[C@H](C)O2)Oc2ccc(cc2Cl)[C@H]1O` [Vancomycin hydrochloride] gave a Papp at 2.5 hr, 5 mg/ml ([1]; pH 7.4, 5 mg/ml, HEPES buffer alone, jejunum) of 0.62 ± 0.07 ×10⁻⁶ cm/s, a Papp at 5 mg/ml ([1]; pH 7.4, 5 mg/ml, jejunum, 1.0 mM sodium decanoate in mucosal chamber) of 1.74 ± 0.1 ×10⁻⁶ cm/s and a Papp at 5 mg/ml ([1]; pH 7.4, 5 mg/ml, jejunum, 1.0 mM sodium decanoate in serosal chamber) of 0.6 ± 0.02 ×10⁻⁶ cm/s. It also gave a Papp at 5 mg/ml ([1]; pH 7.4, 5 mg/ml, jejunum, HEPES buffer containing 5% w/w Gelucire ® 44/14) of 0.78 ± 0.03 ×10⁻⁶ cm/s, a Papp at 5 mg/ml ([1]; pH 7.4, 5 mg/ml, jejunum, HEPES buffer containing 5% w/w Gelucire ® 44/14 + 5% w/w Labrasol ®) of 0.71 ± 0.03 ×10⁻⁶ cm/s and a Papp at 5 mg/ml ([1]; pH 7.4, 5 mg/ml, jejunum, HEPES buffer containing 5% w/w Polysorbate-80) of 0.88 ± 0.09 ×10⁻⁶ cm/s. It also gave a Papp at 5 mg/ml ([1]; pH 7.4, 5 mg/ml, jejunum, HEPES buffer containing 5% w/w Polysorbate-80 + 5% w/w Labrasol ®) of 0.53 ± 0.06 ×10⁻⁶ cm/s, a Papp at 5 mg/ml ([1]; pH 7.4, 5 mg/ml, jejunum, HEPES buffer containing 5% w/w Vitamin E TPGS + 5% w/w Labrasol ®) of 0.56 ± 0.06 ×10⁻⁶ cm/s and a Papp at 5 mg/ml ([1]; pH 7.4, 5 mg/ml, jejunum, HEPES buffer containing 10% w/w Labrasol ®) of 0.36 ± 0.06 ×10⁻⁶ cm/s. The Papp at 5 mg/ml ([1]; pH 7.4, 5 mg/ml, jejunum, HEPES buffer containing 20% w/w Bile salts) was 3.67 ± 0.58 ×10⁻⁶ cm/s, the Papp at 2.5 hr, 10 mg/mL ([1]; pH 7.4, 10 mg/mL, HEPES buffer alone, jejunum) was 0.57 ± 0.13 ×10⁻⁶ cm/s and the Papp at 2.5 hr, 25 mg/mL ([1]; pH 7.4, 25 mg/mL, HEPES buffer alone, jejunum) was 0.54 ± 0.69 ×10⁻⁶ cm/s. For the same molecule, the Papp at 2.5 hr, 50 mg/mL ([1]; pH 7.4, 50 mg/mL, HEPES buffer alone, jejunum) was 0.39 ± 0.47 ×10⁻⁶ cm/s, the Papp at 2.5 hr, 5 mg/mL ([1]; pH 7.4, jejunum, in the presence of 10% w/w Labrasol®) was 0.36 ×10⁻⁶ cm/s and the Papp at 2.5 hr, 5 mg/ml ([1]; pH 7.4, with quinidine 0.15 mM in the mucosal chamber, 5 mg/ml, jejunum, 0.15 mM Quinidine in mucosal chamber) was 0.79 ± 0.08 ×10⁻⁶ cm/s. For the same molecule, the Papp at 2.5 hr, 5 mg/ml ([1]; pH 7.4, with quinidine 0.15 mM in the serosal chamber, 5 mg/ml, jejunum, 0.15 mM Quinidine in serosal chamber) was 2.06 ± 0.16 ×10⁻⁶ cm/s, the “Ave. Cumulative Amt VCM Released” value (rat duodenum; 0.5 hr) was 0.00 ± 0.00 µg and the “Ave. Cumulative Amt VCM Released” value (rat duodenum; 1.0 hr) was 0.00 ± 0.00 µg. The “Ave. Cumulative Amt VCM Released” value (rat duodenum; 1.5 hr) was 0.40 ± 0.80 µg, the “Ave. Cumulative Amt VCM Released” value (rat duodenum; 2.0 hr) was 2.08 ± 0.87 µg and the “Ave. Cumulative Amt VCM Released” value (rat duodenum; 2.5 hr) was 3.51 ± 1.34 µg. For the same molecule, the Papp at 2.5 hr, 5 mg/ml [2] was 0.2 ± 0.05 ×10⁻⁶ cm/s, the “Ave. Cumulative Amt VCM Released” value (rat colon; 0.5 hr) was 0.00 ± 0.00 µg and the “Ave. Cumulative Amt VCM Released” value (rat colon; 1.0 hr) was 0.00 ± 0.00 µg. For the same molecule, the “Ave. Cumulative Amt VCM Released” value (rat colon; 1.5 hr) was 1.93 ± 0.38 µg, the “Ave. Cumulative Amt VCM Released” value (rat colon; 2.0 hr) was 4.20 ± 0.99 µg and the “Ave. Cumulative Amt VCM Released” value (rat colon; 2.5 hr) was 7.15 ± 1.82 µg. For the same molecule, the Papp at 2.5 hr, 5 mg/ml [3] was 0.41 ± 0.07 ×10⁻⁶ cm/s, the absolute bioavailability ([4]; oral administration of a water-in-oil-in-water (w/o/w) emulsion, VCM in inner aqueous phase) was “About 30%” and the absolute bioavailability ([4]; oral, without any added absorption enhancer or enzyme inhibitor) was “less than 5%”. The solubility in water [5] was “soluble in water”, the Papp at 2.5 hr, 5 mg/ml [6] was 0.38 ± 0.05 ×10⁻⁶ cm/s and the “Ave. Cumulative Amt VCM Released” value (rat ileum; 0.5 hr) was 0.00 ± 0.00 µg. For the same molecule, the “Ave. Cumulative Amt VCM Released” value (rat ileum; 1.0 hr) was 0.00 ± 0.00 µg, the “Ave. Cumulative Amt VCM Released” value (rat ileum; 1.5 hr) was 2.55 ± 0.67 µg and the “Ave. Cumulative Amt VCM Released” value (rat ileum; 2.0 hr) was 4.31 ± 1.17 µg. The “Ave. Cumulative Amt VCM Released” value (rat ileum; 2.5 hr) was 6.33 ± 1.66 µg.

From US20090111736A1, “Orally-Absorbed Solid Dose Formulation for Vancomycin” (SRI International, priority 2007, published 2009)
